Measured values: patent US20030144350A1, “Fat accumulation-modulation compounds” (AdipoGenix, Inc., priority 2001, published 2003)
Where two headings read alike, the source gives them in different places.

Key:
[1] = mice, single injections; cited from earlier work
[2] = test system: primary human subcutaneous preadipocytes; assay: High throughput screening of fluorescent fatty acid (FA*) accumulation in differentiating human preadipocytes; type: cell-based
Description: Growth medium was changed every three days. […] Cell plates were prewashed with FAB+, and then FA* was added. Cells were incubated with FA* for four hours, and then postwashed with FAB+ to remove unincorporated FA*. Cellular fluorescence of triglyceride droplets that have incorporated FA* was measured on a microplate reader. Efficacy of compounds on inhibiting FA* accumulation was determined by the following calculation: […]

[3] = test system: primary human subcutaneous preadipocytes; conditions: for % Toxicity: Alamar Blue
Description: Up to five cell strains of banked primary human subcutaneous preadipocytes were used for high throughput screening. Cells were grown in tissue culture flasks, maintained under standard incubation conditions (5% carbon dioxide, 37° C.) and split evenly when 100% confluent into two new tissue culture flasks (one cell division) in growth medium. Cells were split up to four times to produce enough cells for screening.
Two to five days before the experiment, adhered cells were detached with trypsin/EDTA, combined and seeded into 384-well plates at 100% confluency. On day zero, cells were incubated with […] to induce differentiation of preadipocytes into adipocytes (characterized by cell rounding, formation of triglyceride droplets, etc.). Growth medium was changed every three days. On day six, cells were incubated in triplicate with test compounds (supplied by ComGenex International, Inc., South San Francisco, USA) at various concentrations.
Compounds were first diluted in a phosphate-buffered saline solution with 0.1% fatty-acid free bovine serum albumin (BSA, to aid compound suspension), and then added to cells. Negative control cells were treated with DMSO, the solvent used for initially dissolving compounds, at 0.1% final concentration.
Subsequent determination of compound toxicity was measured by incubating cells with Alamar Blue (an indicator of cellular viability, purchased from BioSource International Inc., Camarillo, Calif., USA) for three to four hours before measuring fluorescence of the reduced compound. Toxicity of compounds was determined by the following calculation:
% Toxicity=100-(sample fluorescence/negative control fluorescence*100)

Compound	food eaten less than untreated littermates [1]	efficacy ([2]; 10 μM)	Emax at 0.3 µM ([2]; Homo sapiens, FCCP 0.3 uM, inhibition of FA* accumulation, read-out: % Efficacy)	Emax at 1 µM ([2]; Homo sapiens, FCCP 1 uM, inhibition of FA* accumulation, read-out: % Efficacy)	Emax at 3 µM ([2]; Homo sapiens, FCCP 3 uM, inhibition of FA* accumulation, read-out: % Efficacy)	toxicity ([3]; 10 μM)	% Toxicity ([3]; FCCP 0.3 uM)	% Toxicity ([3]; FCCP 1 uM)	% Toxicity ([3]; FCCP 3 uM)
C=C1C(=O)OC(CCCCCCCC)C1C(=O)O (stereo not drawn) [Compound C75]	90%								
N#CC(C#N)=NNc1ccc(OC(F)(F)F)cc1 [FCCP, Carbonyl cyanide p-(trifluoromethoxy)phenylhydrazone]		100%	42%	79%	90%	100%	−1%	−4%	5%
